In data set [1] the test system is liver clone of a malignant chloroma. The data set can be described thus: Effect on liver cancer: liver clone of malignant chloroma in rats, alone and with cyclophosphamide. The class given is in vivo, Fischer 344 rats. To be noted: Group III, cyclophosphamide 35 mg/kg once. As to the method: Effect of CoQ10 IV Formulation on Liver Cancer: The ability of a Coenzyme Q10 formulation of the present invention to inhibit proliferation of liver tumor cells was examined in an animal model. Twenty-four Fischer 344 rats were injected intraperitoneally with the liver clone of a malignant chloroma Rats were then randomized into groups of 6 rats each. Group 1 served as a control, treated with 0.5 mL of phosphate buffered saline on Monday, Wednesday and Friday for three (3) weeks. Group II received a sterile nanodispersion by IP injection of 20 mg of Coenzyme Q10. […] The formulation was administered by IP injection in a volume of 0.5 mL on Monday, Wednesday and Friday for three (3) weeks. Group III received 35 mg/kg of cyclophosphamide once. Group IV received 20 mg of the 4:3:1.5 CoQ10 formulation in 0.5 mL on Monday, Wednesday and Friday for three (3) weeks. In addition, they received 35 mg/kg of cyclophosphamide once.

For data set [2], the system named is lung clone of a malignant chloroma. The data set can be described thus: Effect on lung tumors: lung clone of malignant chloroma in rats, alone and with cyclophosphamide. It counts as in vivo, Fischer 344 rats. As to conditions: Group III, cyclophosphamide 35 mg/kg IP once. The procedure:
Twenty-four Fischer 344 rats were injected intraperitoneally with the lung clone of a malignant chloroma. The rats were then randomized into groups of 6 rats each. Group 1 served as a control, treated with 0.5 mL of phosphate buffered saline (PBS) on Monday, Wednesday and Friday for three (3) weeks. […] The formulation was administered by IP injection in a volume of 0.5 mL on Monday, Wednesday, and Friday for three (3) weeks. Group III received 35 mg/kg cyclophosphamide by IP injection once.

The next data set deals with MiaPACA2. Put plainly: MiaPACA2 pancreatic carcinoma cells injected in the pancreas of NSG mice, survival. It counts as in vivo. To be noted: doxorubicin group. The procedure:
Effect of CoQ10 IV Formulation on Pancreatic Carcinoma Cell Line: MiaPACA2, a pancreatic cell line was employed on NSG mice. Mice were anesthetized in a sterile environment where they had been housed. Once animals reached surgical-plane anesthesia, mice were laid down, and the abdominal area was palpated. The pancreas was located behind the stomach, between the spleen, and the stomach, both of which are palpable organs. Thereafter, […] were injected in the pancreas by gently manipulating the animal to reach the area behind the stomach. All of these procedures were performed under sterile conditions in a biosafety cabinet, and the animals were housed under strict sterile conditions as well to avoid opportunistic infections. After injection of cells, animals were closely monitored daily. Animals were then randomized into 8 groups receiving a different dose of the CoQ10 N formulation. […] The formulation was administered intravenously via tail veins with dosing every other day three times per week for up to 28 days. The summary of results are depicted in the following graphs (FIGS. 49-56).

Data set [3] in a line: Combination therapy with doxorubicin, survival of rodents. To be noted: administered intraperitoneally, by itself, in rodents. The class given is in vivo. As to the method:
Combination Therapy With CoQ10 IV Formulation and Chemotherapy Adjuvant Doxorubicin, a powerful chemotherapeutic, is lethal when administered intraperitoneally, by itself, in rodents. CoQ10 IV Formulation was administered in combination with doxorubicin.

As to `O=P1(N(CCCl)CCCl)NCCCO1` (stereo not drawn) [chemotherapy, cyclophosphamide], in data set [1], the rats remained disease-free is given as 1 rat and the “the other three rats survived up to day” value is 34 days. In data set [2], the “4 rats survived up to day” value was found to be 35 days and the rats remained disease-free stood at 1 rat.
For the compound `COc1cccc2c1C(=O)c1c(O)c3c(c(O)c1C2=O)C[C@@](O)(C(=O)CO)C[C@@H]3O[C@H]1C[C@H](N)[C@H](O)[C@H](C)O1` [doxorubicin], in the data set with MiaPACA2, the “survivors at 60 days” value was 0 of 30. In data set [3], the lethality result is given as “lethal”.

The values are drawn from patent publication US11400058B2, “Intravenous formulations of coenzyme Q10 (CoQ10) and methods of use thereof” (Berg LLC, priority 2010, dated 2022).
